Measured values from US6472213B1, “Shuttle vectors for the introduction of DNA into mycobacteria and utilization of such bacteria as vaccines” (Institut National de la Sante et de la Recherche Medicale …, priority 1994, dated 2002).

Key:
[1] = system: non-transformed control mycobacteria; type: cell-based, M. smegmatis, M. bovis BCG, M. tuberculosis
[2] = system: mycobacteria carrying the plasmid pMR001; type: cell-based, M. smegmatis, M. bovis BCG, M. tuberculosis
[3] = system: pVN2-carrying mycobacteria; type: cell-based, M. smegmatis, M. bovis BCG, M. tuberculosis
[4] = system: Mycobacterium smegmatis carrying plasmid pVN3; assay: Resistance to arsenic conferred by plasmid pVN3; type: cell-based; conditions: pVN3 in Mycobacterium smegmatis

Molecule	MIC Liquid medium [1] [µg/mL]	MIC Solid medium [1] [µg/mL]	concentration at which considerable susceptibility is shown [1] [µg/mL]	concentration of complete inhibition of bacterial growth (MIC) [1] [µg/mL]	MIC Liquid medium [2] [µg/mL]	MIC Solid medium [2] [µg/mL]	concentration at which still capable of growing [2] [µg/mL]	concentration of complete inhibition of bacterial growth [2] [µg/mL]	MIC Liquid medium [3] [µg/mL]	MIC Solid medium [3] [µg/mL]	concentration up to which growth occurs [3] [µg/mL]	resistance level [4] [mg/L]
[Cl][Hg][Cl] [HgCl2]	1.25	0.15	0.15	1	40	160	20	160	40	160	≤ 40	
arsenic nitrate [AsNO3]												~10
